Experimental data: US20130030055A1, “COMPOSITIONS AND METHODS FOR TREATING HAIR LOSS, HAIR THINNING, AND HAIR COLOR LOSS” (priority 2010, published 2013)

Legend:
Format in all cases: in vivo, human
eyelashes [1] = test: Open-label study of bimatoprost 0.03% on eyelid lash line: photographic Global Eyelash Assessment (GEA)
Method: To assess the safety, efficacy, and subjective experience of using dermal application of bimatoprost 0.03% for the growth of natural eyelashes and as described herein hair in at least one eyebrow region, a prospective, open-label study of subjects who desired longer, thicker (fuller), and darker natural eyelashes was conducted.
This was a prospective, open-label study of subjects who wanted to grow more prominent eyelashes. […] The protocol was in compliance with the Declaration of Helsinki and in accordance with applicable Institutional Review Board regulations approved Aug. 28, 2005. Study subjects gave informed consent prior to initiation of any study-related procedures.
(§1) Subjects were instructed to apply bimatoprost 0.03% to the eyelid lash line once daily for 12 weeks using an applicator (Studio Basics Professional Tools Eye Applicators, Paris Presents Incorporated, Gumee, Ill.) for each upper eyelid each evening and, if necessary, to wipe the areas immediately around the eyelid afterward to remove excess medication. Periodic use of artificial tears was allowed, but only prior to administration of bimatoprost 0.03%.
Photographic Documentation and Analysis. Frontal-(with eyes open) and side-view photographs were taken of the subjects' eyes at each visit; frontal-view images with eyes closed were taken starting at week 1. The photographic assessment planned as a primary a priori endpoint was a dynamic measure assessing change at each visit from baseline photos. The dynamic scale of global change in increased length, thickness, pigmentation, and number of lashes was +0=no change, +½=little change, +1=mild noticeable change, +2=moderate notable change, and +3=major very notable change. A static photographic assessment was calculated. Photographs from subjects who had frontal eyes-closed images available from weeks 1 and 12 were evaluated in a post hoc analysis and scored independently by 2 raters using a validated Global Eyelash Assessment (GEA) scale, designed to objectively evaluate the quality of a subject's eyelashes. One evaluator was a physician and the other was a health outcomes researcher employed by the study sponsor. In this clinician-graded assessment, overall eyelash prominence was rated on a scale from 1 (minimal) to 4 (very marked). The two independently assessed scores for each photograph (1 from each evaluator) were averaged and the change from week 1 was calculated for each patient.
Statistical Analyses. A 2-sided paired t-test was used to evaluate the intraocular pressure change from baseline, and the GEA change from week 1 to week 12 was compared using a Wilcoxon signed-rank test. Analysis of intraocular pressure was performed on a per-eye and per-subject basis. A significance level of 0.05 was used for all statistical tests. Categorical variables were summarized with frequency, count, and percentages.

eyelashes [2] = test: Open-label study: health outcomes questionnaires and verbal responses
From the text: Subjects were instructed to apply bimatoprost 0.03% to the eyelid lash line once daily for 12 weeks using an applicator (Studio Basics Professional Tools Eye Applicators, Paris Presents Incorporated, Gumee, Ill.) for each upper eyelid each evening and, if necessary, to wipe the areas immediately around the eyelid afterward to remove excess medication. Periodic use of artificial tears was allowed, but only prior to administration of bimatoprost 0.03%. Health Outcomes Questionnaires. A questionnaire was used to track adverse events and to assess the subjects' satisfaction with treatment and their subjective evaluation of their eyelashes' appearance. Subjects were asked to answer all questions and return the questionnaire at weeks 4, 8, and 12. Subjects were also asked to respond verbally to 2 additional questions and their responses were recorded by site staff (FIGS. 1-4).

[3] = Open-label study: adverse events, periorbital darkening, biomicroscopy
From the text: as §1
Clinical Examinations. Assessments were conducted at baseline and at weekly study visits at weeks 1, 4, 8, 12 (end of treatment period), and 16 (post-treatment follow-up period). At each visit, subjects underwent a complete eye examination by an ophthalmologist that included intraocular pressure measurements, visual acuity, and biomicroscopy. Subjects were queried at each visit for adverse events and these were recorded by the investigator. The presence of periorbital darkening was noted and graded on a scale of 0 to 4, and adverse event data were collected at each visit during the treatment period.
Health Outcomes Questionnaires. A questionnaire was used to track adverse events and to assess the subjects' satisfaction with treatment and their subjective evaluation of their eyelashes' appearance. Subjects were asked to answer all questions and return the questionnaire at weeks 4, 8, and 12. Subjects were also asked to respond verbally to 2 additional questions and their responses were recorded by site staff (FIGS. 1-4).

CCNC(=O)CCC/C=C\C[C@@H]1[C@@H](/C=C/[C@@H](O)CCc2ccccc2)[C@H](O)C[C@@H]1O [bimatoprost]
Mean GEA score at week 1 (eyelashes [1]; 17 subjects with week-1 GEA scores of 1 or 2): 1.88±0.33
Mean increase in GEA score at week 12 (eyelashes [1]; 17 subjects with week-1 GEA scores of 1 or 2, P<0.0001): 1.41±0.44
Mean change in GEA score from week 1 to week 12 (eyelashes [1]; all 19 subjects, P<0.0001): 1.37±0.44
Mean week-1 GEA score (eyelashes [1]; all 19 subjects, scale 1 to 4): 2.0±0.47
Subjects rated GEA 2 (moderate) (eyelashes [1]; week 1 (15/19)): 79.0%
Subjects rated GEA 3 (marked) or higher (eyelashes [1]; week 12 (18/19)): 94.7%
Subjects who noticed changes in eyelashes by week 12 (eyelashes [2]; 16 respondents at week 12): 3 subjects
Subjects who noticed changes in eyelashes within the first month (eyelashes [2]; 16 respondents at week 12): 3 subjects
Subjects who noticed changes in eyelashes within the first week (eyelashes [2]; 16 respondents at week 12): One
Respondents who had started to notice changes in their eyelashes by week 8 (eyelashes [2]; 16 respondents at week 12 (9/16)): 56.3%
Respondents indicating eyelashes were "improved" or "much improved" (eyelashes [2]; by week 12, all respondents): 16 respondents
Respondents answering yes to "Do your eyes sting or burn upon application?" (eyelashes [2]; week 4 (8/19)): 42.2%
Respondents answering yes to "Do your eyes sting or burn upon application?" (eyelashes [2]; week 8 (6/18)): 33.3%
Respondents answering yes to "Do your eyes sting or burn upon application?" (eyelashes [2]; week 12 (4/15)): 26.7%
Respondents agreeing "very much/much" that they had done something positive for their appearance (eyelashes [2]; week 12 (12/16)): 75%
Respondents agreeing "very much/much" that the treatment was helpful (eyelashes [2]; week 12 (15/16)): 94%
Subjects indicating both longer and thicker (eyelashes [2]; week 12, 16 respondents): 1 subject
Subjects reporting all 3 options, longer, thicker, and darker (eyelashes [2]; week 12, 16 respondents): 3 subjects
Respondents choosing "longer" as the eyelash change they noticed most (eyelashes [2]; week 12, Twelve of the 16 respondents): 81.3%
Respondents who had noticed growth or darkening of their eyelashes (verbal question) (eyelashes [2]; week 12, all 23 respondents): 100%
Respondents indicating yes at least once to sting or burn upon application (eyelashes [2]; weeks 4, 8, 12): 10 respondents
Subjects Reported (n): Eye redness ([3]; Week 1 (n = 24)): 2
Subjects Reported (n): Periorbital pigmentation changes ([3]; Week 1 (n = 24)): 0
Subjects Reported (n): Possible brown eye shadow effect ([3]; Week 1 (n = 24)): 1
Subjects Reported (n): Burning ([3]; Week 4 (n = 27)): 1
Subjects Reported (n): Dryness and tightness ([3]; Week 4 (n = 27)): 1
Subjects Reported (n): Eye redness ([3]; Week 4 (n = 27)): 4
Subjects Reported (n): Mild itchiness ([3]; Week 4 (n = 27)): 3
Subjects Reported (n): Periorbital pigmentation changes ([3]; Week 4 (n = 27)): 3
Subjects Reported (n): Periorbital redness ([3]; Week 4 (n = 27)): 1
Subjects Reported (n): Burning ([3]; Week 8 (n = 20)): 2
Subjects Reported (n): Mild itchiness ([3]; Week 8 (n = 20)): 2
Subjects Reported (n): Periorbital pigmentation changes ([3]; Week 8 (n = 20)): 1
Subjects Reported (n): Redness and dryness ([3]; Week 8 (n = 20)): 1
Subjects Reported (n): Dryness and darkening ([3]; Week 12 (n = 23)): 1
Subjects Reported (n): Eye redness ([3]; Week 12 (n = 23)): 1
Subjects Reported (n): Eyelid redness ([3]; Week 12 (n = 23)): 1
Subjects Reported (n): Itching ([3]; Week 12 (n = 23)): 1
Subjects Reported (n): Periorbital pigmentation changes ([3]; Week 12 (n = 23)): 3
Subjects Reported (n): Red and sore ([3]; Week 12 (n = 23)): 1
Hyperemia on biomicroscopy examination ([3]; any subject at any visit): not observed
Subjects with periorbital darkening ([3]; during the course of the study, 28 subjects): 18%
Subjects whose pigmentation changes were noted as possible, slight or a little ([3]; of 28 subjects): 11%
Serious or unexpected adverse events ([3]; whole study): no serious or unexpected adverse events
